This is an account of results in US20260297508A1, “MODULATORS OF PROTEIN SECRETION” (SANOFI, priority 2023, published 2026).

Series [1] concerns human PD-L1 (CHO-PDL1 cells). Nature of the series: Flow cytometry binding to PD-L1-expressing CHO cells. The conditions noted are these: FACS. The text has this:
(§1) FIGS. 3A-F show the characterization of the binding capacity of the anti-PD-L1 RUSH antibody released through the biotin-activated RUSH system (FIGS. 3A, 3C, and FIG. 3E) Schematic representation of the antibody binding to PD-L1^pos cells and detection by flow cytometry. […] Dark grey, binding to PD-L1^pos CHO cells (CHO-PDL1); light grey, binding to PD-L1^neg parental CHO cells (CHO-K1). Antibody binding is detected by means of an indirect immunofluorescence assay with a secondary anti-Fc APC conjugated or by direct measurement of GFP fluorescence.
(§2) Human osteosarcoma U2OS cells obtained from the Kroemer lab were maintained at 37° C. in a humidified incubator with 5% CO2 in Dulbecco's Modified Eagle Medium (DMEM) supplemented with 10% Fetal Bovine Serum (FBS), 1% penicillin-streptomycin and 1% HEPES (Gibco, Carlsbad, CA). CHO-K1 (CCL-61) cells were obtained from the ATCC and cultured at 37° C. in a humidified incubator with 5% CO2 in Nutrient Mixture F-12 Ham's (Sigma, Saint-Louis, MO) supplemented with 10% FBS and 2 mM L-Glutamine (Gibco). PD-L1-expressing CHO cells were cultured in similar conditions in medium supplemented with 7.5 μg/mL puromycin (Gibco). The Prestwick, the BML-2840 ICCB Known Bioactives and the Autophagy Compounds libraries were purchased from Prestwick Chemicals (Illkirch, France), Enzo Life Sciences (Farmingdale, NY), and TargetMol (Boston, MA), respectively. […]

For series [2], the system named is CHO-K1 cells. Nature of the series: Flow cytometry binding to PD-L1neg parental CHO cells. The conditions noted are these: FACS.
Source text: as §1, §2

The subject of series [3] is D3/D2 receptor. The conditions noted are these: cited from earlier work.
The test system of series [4] is D1 receptors. As to conditions: cited from earlier work.
Series [5] relates to biotin-induced antibody release, U2OS clone #7 cells. Nature of the series: High-throughput RUSH screen: biotin-induced cytoplasmic GFP signal decay (antibody release), U2OS clone #7. The series is classed as cell-based, human. How it is done: FIGS. 4A-4C show the high-throughput screening of chemical compound libraries for the identification of modulators of protein secretion. […] U2OS clone #7 is plated in 384-well plates and incubated for 24 h before treatment with each compound of the Prestwick, ICCB Known Bioactives, or Autophagy Compound Library at 2 concentrations, low and high (with a 10-fold difference). […] The results of the Prestwick library screening at the low drug concentration are plotted. Brefeldin A was used as a positive control of the inhibition of secretion. The compounds causing a cytoplasmic GFP intensity below that observed for biotin-only treated cells are potential enhancers of protein secretion.
U2OS cells were transfected with the streptavidin-KDEL plasmid using Lipofectamine 2000 (Thermo Fisher Scientific) and selected in medium supplemented with G418 (400 μg/mL, Gibco-Invitrogen) for 2 weeks. Limiting dilution in 96-well plates was used for single cell isolation from the selected pool. Clones were amplified and selected based on streptavidin immunofluorescence. Clone #BD6 showing the highest streptavidin expression was further expanded in medium supplemented with G418 (200 μg/mL) and transfected with the anti-PD-L1 IgG RUSH plasmid using Lipofectamine 2000 and selected in medium supplemented with G418 (200 μg/mL) and hygromycin (100 μg/mL, Santa Cruz Biotechnology) for 2 weeks. Limiting dilution in 96-well plates was used for single cell isolation from clone #BD6-derived selected pool. Clones were amplified and selected based on GFP fluorescence and clone #7 was selected for further characterization and screening campaigns.
U2OS clone #7 cells were seeded in black 384-well imaging plates (Greiner bio one), 2,000 cells/well, and incubated for 24 h at 37° C. in a humidified incubator with 5% CO2. Cells were treated on the next day with the compounds from either the Prestwick library at […], the ICCB Known Bioactives library at 1/100^e or 1/1000^e, or the autophagy compound library at 10 μM or 1 μM for 4 h. […] Cells were then fixed as described above and processed for subsequent automated image acquisition using a robot-assisted IXM XL BioImager (Molecular Devices, Sunnyvale, CA, USA) equipped with a Sola light source (Lumencor, Beaverton, OR, USA), adapted excitation and emission filters (Semrock) a 16-bit monochrome sCMOS PCO.edge 5.5 camera (PCO, Kelheim, Germany). A 20× PlanAPO objective (Nikon, Tokyo, Japan) was used to acquire a minimum of 4 view fields in each well. The acquired images were processed using the open-access R software (https://www.r-project.org) with the help of freely available packages EBImage (available on the Bioconductor repository https://www.bioconductor.org), and RBioFormats (https://github.com/aoles/RBioFormats), and the custom packages MetaxpR (https://github.com/asauvat/MetaxpR) and MorphR (https://github.com/kroemerlab/MorphR). Nuclei were first detected using Hoechst 33342 signal and used as a marker to detect cytoplasmic areas based on GFP signal, allowing for the evaluation of cytoplasmic GFP intensity. Data were thereafter extracted and statistically evaluated using R (https://www.r-project.org). Data were normalized using negative and positive controls, reduced and transformed into a Z-score. The experiments were repeated manually at low scale with selected drugs to confirm their effects on secretion, in this second set of assays, U2OS clone #7 cells incubated with secretion inhibitors were fixed and stained with Hoechst as described above for imaging and viability determination based on cell counts.
We next sought to use clone #7 in screening campaigns for the identification of drugs capable of enhancing or inhibiting antibody secretion. […] Cell counting was facilitated by nuclear counterstaining with Hoechst 33324 in order to assess viability and distinguish drug effects on the secretion kinetics from direct cytotoxicity and select relevant drugs for further characterization. […]

Series [6] has as its system eryptosis; apoptosis. As to conditions: cited from earlier work.
Series [7] has as its system U2OS clone #7 cells. As to the kind of experiment: Toxicity assay: Hoechst staining, number of adherent living cells. The series is classed as cell-based, human. The conditions noted are these: 50 μg/mL; FIG. 7B. How it is done:
(§3) FIGS. 7A and 7B show validation of inhibitors of protein secretion. […] Clone #7 cells were treated with the indicated compounds and supernatants were assayed for PD-L1 binding. Brefeldin A was used as a protein secretion inhibitor positive control. […] Hoechst 33324 fluorescence was measured, which enabled to number adherent living cells in each well.
(§4) U2OS clone #7 cells were seeded in black 384-well imaging plates (Greiner bio one), 2,000 cells/well, and incubated for 24 h at 37° C. in a humidified incubator with 5% CO2. Cells were treated on the next day with the compounds from either the Prestwick library at 20 μM or 10 μM, the ICCB Known Bioactives library at 1/100^e or 1/1000^e, or the autophagy compound library at 10 μM or 1 μM for 4 h. […] Cells were then fixed as described above and processed for subsequent automated image acquisition using a robot-assisted IXM XL BioImager (Molecular Devices, Sunnyvale, CA, USA) equipped with a Sola light source (Lumencor, Beaverton, OR, USA), adapted excitation and emission filters (Semrock) a 16-bit monochrome sCMOS PCO.edge 5.5 camera (PCO, Kelheim, Germany). […] Nuclei were first detected using Hoechst 33342 signal and used as a marker to detect cytoplasmic areas based on GFP signal, allowing for the evaluation of cytoplasmic GFP intensity. Data were thereafter extracted and statistically evaluated using R (https://www.r-project.org). […]

Series [8] relates to NLRP3. As to conditions: cited from earlier work.
The subject of series [9] is biotin-induced antibody release, U2OS clone #7 cells. Nature of the series: Low-throughput validation by imaging of the biotin-induced antibody release (cytoplasmic GFP), clone #7. The series is classed as cell-based, human. As to conditions: FIG. 5C. How it is done:
FIGS. 5A-5C show selection of potential enhancers of protein secretion. FIGS. 5A and 5B) show dot plot representations of drugs efficiency based on their Z-scores measured at low and high drug concentration (FIG. 5A, Prestwick library; FIG. 5B, ICCB Known Bioactives and TargetMol Autophagy libraries). Compounds selected for further characterization are listed. (FIG. 5C) Clone #7 was treated with the indicated compounds, fixed and analyzed as described in FIG. 4A legend.
FIG. 6A-6C show validation of enhancers of protein secretion.
as §4, with “Germany). A 20× PlanAPO objective (Nikon, Tokyo, Japan) was used to acquire a minimum of 4 view fields in each well.” for “Germany).”
Medium- and high-throughput screenings often yield false positive and negative hits, calling for independent validation in low-throughput experiments with orthogonal technologies. In a first round of experiments, we evaluated the effects of shortlisted compounds with potential antibody secretion enhancer activity. […]

Series [10] concerns RUSH antibody secretion, U2OS clone #7 cells. Nature of the series: ELISA on immobilized PD-L1: RUSH antibody titer in supernatant of treated clone #7 cells. The conditions noted are these: 50 μg/mL. The series is classed as cell-based, human. How it is done:
as §3
U2OS clone #7 cells were seeded in 6-well plates and kept for 24 h at 37° C. in a humidified incubator with 5% CO2. The next day, the supernatants were removed, cells were rinsed with 37° C. pre-heated PBS and new medium containing the chemical treatment was added for 4 h. […] Then supernatants were collected and used for the ELISA assay as follows. MaxiSorp 96-well plates (Thermo Fisher Scientific) were coated with 0.5 μg/mL hFc-human-PD-L1 (R&D Systems, Minneapolis, MN) in PBS for 5.5 h at RT. Coating solution was then removed and 2% BSA/PBS blocking solution was added overnight at 4° C. The next day, wells were washed 3 times with 0.5% BSA/0.05% Tween-20/PBS solution. Supernatants were added after a ⅓ dilution in 0.5% BSA/0.05% Tween-20/PBS, for 2.3 h at RT. Wells were washed 3 times with 0.5% BSA/0.05% Tween-20/PBS solution. Anti-human kappa light chain HRP-coupled antibody was added diluted in 0.5% BSA/0.05% Tween-20/PBS at 1/4000^e for 2.3 h at RT. Wells were washed 3 times with 0.5% BSA/0.05% Tween-20/PBS solution before incubation with substrate reagents pack (R&D Systems) for 15 min in the dark. Fifty μL of STOP solution (R&D Systems) were then added to each well and the absorbance in each well was subsequently measured at 450 nm, and 635 nm for background subtraction, using a VICTOR™ X4 (PerkinElmer, Waltham, MA).
Medium- and high-throughput screenings often yield false positive and negative hits, calling for independent validation in low-throughput experiments with orthogonal technologies. In a first round of experiments, we evaluated the effects of shortlisted compounds with potential antibody secretion enhancer activity. Compounds identified in the screening campaigns were tested again on clone #7 at a low concentration (FIG. 6A) or a ten-fold higher concentration (FIG. 6B) for their ability to increase antibody secretion. […] We further characterized these hits in an PD-L1 binding ELISA.

In the case of “anti-PD-L1: reference anti-human PD-L1 antibody produced from published Atezolizumab heavy and light chains sequences”, the “binding to CHO-PDL1 cells” value in [1] is “binding to PD-L1^pos (CHO-PDL1)”. In addition, in series [2], the “binding to CHO-K1 cells” value is recorded as “not PD-L1^neg CHO (CHO-K1) cells”.
As for `CCCN(CCC)CCc1cccc2c1CC(=O)N2` [ropinirole, 4-[2-(dipropylamino)ethyl]-1,3-dihydroindol-2-one], the D3/D2 receptor agonism result in series [3] is “potent D3/D2 receptor agonist”. In [4], the “affinity for D1 receptors” value is “no affinity”. In series [5] (Prestwick library, low and high concentration, 4 h compound, then 40 μM biotin 1 h), the “secretion activator at both low and high concentration (consistently decreased fluorescent signal, among 20 best activators)” value is given as “fulfilled these criteria”. In [5] (screening campaigns, summary), the “decrease of intracytoplasmic GFP fluorescence signal (biotin-stimulated RUSH system)” value is listed as “consistently decreased intracytoplasmic GFP fluorescence”.
Consider `CO[C@@H]1C[C@@H](C[C@H]2CC[C@H](C)[C@H]([C@@H](C)C(=O)O)O2)O[C@]2(O[C@](C)([C@H]3CC[C@@](C)([C@@H]4O[C@@H]([C@H]5O[C@@](O)(CO)[C@H](C)C[C@@H]5C)C[C@@H]4C)O3)C[C@H]2C)[C@@H]1C` [nigericin], for which, in series [6], the apoptosis entry is on record as “triggers apoptosis” and the eryptosis entry is on record as “promote eryptosis”. For the same compound, the cellular viability result in series [7] was “without affecting cellular viability”. The “inhibition of the biotin-induced decrease of the GFP signal” value in series [5] (4 h compound, then 40 μM biotin 1 h, screening) is on record as “inhibited the biotin-induced cytoplasmic GFP signal decay”. Besides, the “retention of the RUSH antibody in the cytoplasm” value in series [5] (screening campaigns, summary) is on record as “caused the retention of the RUSH antibody in the cytoplasm”. In addition, the “NLRP3 activation, release of IL-1β” value in series [8] is recorded as “leading to the release of IL-1β”. The “effect on secretion by cell imaging” value in [9] was “inhibitory effect”. In addition, the “inhibition of antibody secretion, validation” value in series [10] (summary) is recorded as “confirmed as a secretion inhibitor”. Further, the “suppression of antibody secretion compared with brefeldin A” value in series [10] (4 h compound, biotin 30 min, FIG. 7A) is “as potent as brefeldin A in suppressing antibody secretion”.
